Activity calls are given as the source filed them. The rule behind the calls is not given here.
Columns and labels:
Cathepsin B [1] = target: T1, Cathepsin B (Homo sapiens, UniProt P07858); assay: Inhibition of cathepsin B at 100 uM
Plasmodium falciparum [2] = assay: Antiparasitic activity against Plasmodium falciparum; format: functional, organism-based
[3] = system: Trypanosoma brucei brucei; assay: Antiparasitic activity against Trypanosoma brucei brucei; format: functional, organism-based
Rhodesain = Rhodesain (Trypanosoma brucei rhodesiense, UniProt Q95PM0); assay: Inhibition of Trypanosoma brucei rhodesiense rhodesain
Procathepsin L [4] = target: T2, Procathepsin L (Homo sapiens, UniProt P07711); assay: Inhibition of cathepsin L
Target sequence in this assay (P07711 whole entry): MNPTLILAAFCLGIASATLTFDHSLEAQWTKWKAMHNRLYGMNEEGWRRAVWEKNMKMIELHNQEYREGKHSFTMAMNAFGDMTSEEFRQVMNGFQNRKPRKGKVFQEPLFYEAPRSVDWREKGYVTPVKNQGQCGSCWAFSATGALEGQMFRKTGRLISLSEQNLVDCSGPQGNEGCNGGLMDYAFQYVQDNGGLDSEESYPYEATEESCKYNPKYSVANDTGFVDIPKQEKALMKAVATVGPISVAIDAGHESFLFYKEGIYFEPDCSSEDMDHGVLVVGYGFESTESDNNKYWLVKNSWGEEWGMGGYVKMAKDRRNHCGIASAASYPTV

Plasmodium falciparum [5] = assay: Inhibition of Plasmodium falciparum falcipain-2 at 100 uM
[6] = Inhibition of Plasmodium falciparum falcipain-2
[7] = target: Rhodesain (Trypanosoma brucei rhodesiense) (UniProt Q95PM0); assay: Time dependent inhibition of Trypanosoma brucei rhodesiense rhodesain by Dixon plot analysis
Cathepsin B [8] = target: T1, Cathepsin B; assay: Inhibition of cathepsin B
Plasmodium falciparum [9] = assay: Time dependent inhibition of Plasmodium falciparum falcipain-2 by Dixon plot analysis
Procathepsin L [10] = target: T2, Procathepsin L; assay: Inhibition of cathepsin L at 100 uM
Target sequence in this assay (P07711 114-333 limits assumed): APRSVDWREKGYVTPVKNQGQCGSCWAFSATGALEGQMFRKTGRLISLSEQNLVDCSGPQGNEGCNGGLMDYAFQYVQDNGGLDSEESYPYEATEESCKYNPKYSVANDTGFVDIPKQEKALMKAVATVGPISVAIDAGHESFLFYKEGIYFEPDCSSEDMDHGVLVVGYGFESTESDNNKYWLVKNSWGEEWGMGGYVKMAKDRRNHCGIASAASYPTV

Cathepsin B [11] = target: T1, Cathepsin B; settings: 20 uM
Description: Inhibition of cathepsin B at 20 uM

Plasmodium falciparum [12] = assay: Inhibition of Plasmodium falciparum falcipain-2 at 20 uM
[13] = target: Rhodesain (Trypanosoma brucei rhodesiense) (UniProt Q95PM0); assay: Inhibition of Trypanosoma brucei rhodesiense rhodesain at 20 uM
Procathepsin L [14] = target: T2, Procathepsin L; assay: Inhibition of cathepsin L at 20 uM
Target sequence in this assay (P07711 114-333 limits assumed): as above

Procathepsin L [15] = target: T2, Procathepsin L; assay: Time dependent inhibition of cathepsin L by Dixon plot analysis
Target sequence in this assay (P07711 114-333 limits assumed): as above

Rhodesain (Trypanosoma brucei rhodesiense), sequence (Q95PM0 1-450): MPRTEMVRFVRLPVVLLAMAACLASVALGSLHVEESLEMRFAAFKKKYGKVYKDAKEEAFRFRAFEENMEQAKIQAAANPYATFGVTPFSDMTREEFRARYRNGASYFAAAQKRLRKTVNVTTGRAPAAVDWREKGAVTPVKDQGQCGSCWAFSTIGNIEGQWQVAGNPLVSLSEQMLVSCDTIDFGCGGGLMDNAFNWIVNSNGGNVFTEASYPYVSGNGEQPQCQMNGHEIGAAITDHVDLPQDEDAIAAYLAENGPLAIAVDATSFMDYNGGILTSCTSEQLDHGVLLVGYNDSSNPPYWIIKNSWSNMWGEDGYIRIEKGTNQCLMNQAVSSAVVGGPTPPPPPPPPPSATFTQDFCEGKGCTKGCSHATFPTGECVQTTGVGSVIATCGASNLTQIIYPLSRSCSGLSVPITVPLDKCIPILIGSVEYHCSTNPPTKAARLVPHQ
Rhodesain, sequence (Q95PM0 whole entry): as the sequence (Q95PM0 1-450) above

Compound | inhibition (Cathepsin B [1]) | IC50 (Plasmodium falciparum [2]) | IC50 [3] | Ki (Rhodesain) | Ki (Procathepsin L [4]) | inhibition (Plasmodium falciparum [5]) | Ki [6] | TDI [7] | Ki (Cathepsin B [8]) | TDI (Plasmodium falciparum [9]) | inhibition (Procathepsin L [10]) | inhibition (Cathepsin B [11]) | inhibition (Plasmodium falciparum [12]) | inhibition [13] | inhibition (Procathepsin L [14]) | TDI (Procathepsin L [15])
CC(C)(C)S[S+]([O-])Cc1ccccc1 (stereo unspecified) | inactive | 52.9 µM | 11.9 µM | > 100 µM | > 100 µM | inactive |  |  |  |  |  |  |  |  |  | 
[O-][S+](Cc1ccccc1)SCc1ccccc1 (stereo unspecified) |  | 30.3 µM |  | 2.31 µM | 31.7 µM |  | 4.5 µM | 7800 min⁻¹ M⁻¹ | 7.8 µM | 48600 min⁻¹ M⁻¹ |  |  |  |  |  | 
CC(C)CCS[S+]([O-])CCC(C)C (stereo unspecified) |  | 54.7 µM |  | 0.36 µM | 3.4 µM |  | 3.04 µM |  | 18.9 µM |  |  |  |  |  |  | 
CCCCCCS[S+]([O-])CCCCCC (stereo unspecified) |  | 10.9 µM | 3.08 µM | 1 µM | 10.4 µM |  | 1.8 µM | 83500 min⁻¹ M⁻¹ | 5.94 µM | 44100 min⁻¹ M⁻¹ |  |  |  |  |  | 
CC(C)(C)S[S+]([O-])C(C)(C)C (stereo unspecified) | inactive | 72.5 µM | > 40 µM | > 100 µM |  |  | > 100 µM |  |  |  | inactive |  |  |  |  | 
[O-][S+](SC1CCCCC1)C1CCCCC1 (stereo unspecified) |  | 34.4 µM |  | > 100 µM | > 100 µM |  | > 100 µM |  | > 100 µM |  |  |  |  |  |  | 
C=CCS[S+]([O-])CC=C (stereo unspecified) [ALLICIN] |  | 5.21 µM | 13.8 µM | 5.31 µM | 9.3 µM |  | 1.04 µM |  | 8.6 µM |  |  | inactive | inactive | inactive | inactive | 
CCCS[S+]([O-])CCC (stereo unspecified) |  | 78.3 µM | > 40 µM | 4.44 µM | 11.3 µM |  | 26.4 µM | 7150 min⁻¹ M⁻¹ | 15.6 µM | 10800 min⁻¹ M⁻¹ |  |  |  |  |  | 6660 min⁻¹ M⁻¹

Source: ChEMBL document CHEMBL1221327, “Allicin and derivates are cysteine protease inhibitors with antiparasitic activity” (Bioorg Med Chem Lett, 2010)
